Source: patent US20050119304A1, “Urea derivatives” (priority 2001, published 2005)

Experiments:
[1] = molecular target: T1, human VR1 (Homo sapiens, UniProt Q8NER1); experiment: Capsaicin-induced Ca2+ influx in the human VR1-transfected CHO cell line (Assay 1); assay type: cell-based; settings: read-out: hVR1 class
T1 construct: The cloned hVR1 cDNA was constructed with pcDNA3 vector and transfected into a CHOluc9aeq cell line; expressed in transfected cells
Text: [Measurement of Capsaicin-Induced Ca^2+ Influx in the Human VR1-Transfected CHO Cell Line] (Assay 1)
(1) Establishment of the Human VR1-CHOluc9aeq Cell Line
Human vanilloid receptor (hVR1) cDNA was cloned from libraries of axotomized dorsal root ganglia (WO2000/29577). The cloned hVR1 cDNA was constructed with pcDNA3 vector and transfected into a CHOluc9aeq cell line. The cell line contains aequorin and CRE-luciferase reporter genes as read-out signals. The transfectants were cloned by limiting dilution in selection medium (DMEM/F12. medium (Gibco BRL) supplemented with 10% FCS, 1.4 mM Sodium pyruvate, 20 mM HEPES, 0.15% Sodium bicarbonate, 100 U/ml penicillin, 100 μg/ml strept mycin, 2 mM glutamine, non-essential amino acids and 2 mg/ml G418). Ca^2+ influx was examined in the capsaicin-stimulated clones. A high responder clone was selected and used for further experiments in the project. The human VR1-CHOluc9aeq cells were maintained in the selection medium and passaged every 3-4 days at 1-2.5×10^5 cells/flask ([…]).
(2) Measurement of Ca^2+ Influx Using FDSS-3000
Human VR1-CHOluc9aeq cells were suspended in a culture medium which is the same as the selection medium except for G418 and seeded at a density of 1,000 cells per well into 384-well plates (black walled clear-base/Nalge Nunc International). Following the culture for 48 hrs the medium was changed to 2 μM Fluo-3 AM (Molecular Probes) and 0.02% Puronic F-127 in assay buffer (Hank's balanced salt solution (HBSS), 17 mM HEPES (pH7.4), 1 mM Probenecid, 0.1% BSA) and the cells were incubated for 60 min at 25° C. After washing twice with assay buffer the cells were incubated with a test compound or vehicle for 20 min at 25° C. Mobilization of cytoplasmic Ca^2+ was measured by FDSS-3000 (λex=488 nm, λem=540 nm/Hamamatsu Photonics) for 60 sec after the stimulation with 10 nM capsaicin. Integral R was calculated and compared with controls.
The data corresponds to the compounds as yielded by solid phase synthesis and thus to levels of purity of about 40 to 90%.

T1 sequence (Q8NER1 whole entry): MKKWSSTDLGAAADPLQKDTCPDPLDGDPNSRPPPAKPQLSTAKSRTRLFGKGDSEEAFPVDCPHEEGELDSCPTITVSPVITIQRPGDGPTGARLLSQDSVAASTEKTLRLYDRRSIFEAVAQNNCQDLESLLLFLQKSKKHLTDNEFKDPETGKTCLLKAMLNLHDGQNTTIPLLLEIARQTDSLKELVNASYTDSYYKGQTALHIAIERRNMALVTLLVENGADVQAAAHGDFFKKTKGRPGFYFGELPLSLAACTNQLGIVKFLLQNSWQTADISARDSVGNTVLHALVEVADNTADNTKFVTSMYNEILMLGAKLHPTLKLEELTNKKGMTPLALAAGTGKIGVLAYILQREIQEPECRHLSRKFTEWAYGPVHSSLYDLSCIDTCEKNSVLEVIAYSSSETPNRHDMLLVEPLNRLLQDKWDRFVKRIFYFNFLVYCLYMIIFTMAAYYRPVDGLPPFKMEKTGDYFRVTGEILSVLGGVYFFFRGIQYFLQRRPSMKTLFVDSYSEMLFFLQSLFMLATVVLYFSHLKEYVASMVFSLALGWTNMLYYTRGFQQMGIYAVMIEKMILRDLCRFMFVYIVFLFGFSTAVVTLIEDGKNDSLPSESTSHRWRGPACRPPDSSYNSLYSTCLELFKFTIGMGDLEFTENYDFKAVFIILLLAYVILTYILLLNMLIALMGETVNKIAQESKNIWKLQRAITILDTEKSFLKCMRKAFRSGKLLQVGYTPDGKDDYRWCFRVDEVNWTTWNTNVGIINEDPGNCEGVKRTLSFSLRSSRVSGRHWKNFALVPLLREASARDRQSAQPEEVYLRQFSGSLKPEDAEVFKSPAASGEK

Row | Compound | melting point | IC50 [1]
1 | O=C(Nc1ccc(Oc2ccccc2)cc1)Nc1ccc2[nH]cnc2c1 [Example 58] | 235 to 237 °C | 0.1 to 0.5 µM
2 | CC(C)c1ccc(NC(=O)Nc2ccc3[nH]cnc3c2)cc1 [Example 59] | 226 to 229 °C | 0.5 to 1 µM
3 | O=C(Nc1cccc2ccccc12)Nc1cccc2[nH]ccc12 [Example 62] | > 250 °C | < 0.1 µM
4 | O=C(Nc1ccc(Cl)c(Cl)c1)Nc1cccc2[nH]ccc12 [Example 63] | 244 to 245 °C | < 0.1 µM
5 | O=C(Nc1ccc(F)cc1F)Nc1cccc2[nH]ccc12 [Example 64] | 247 to 248 °C | 0.5 to 1 µM
6 | O=C(Nc1cc(C(F)(F)F)ccc1Cl)Nc1cccc2[nH]ccc12 [Example 68] | 211 to 213 °C | < 0.1 µM
7 | CSc1cccc(NC(=O)Nc2ccc3[nH]ccc3c2)c1 [Example 71] | 236 to 239 °C | 0.1 to 0.5 µM
8 | O=C(Nc1ccc(Br)cc1)Nc1ccc2[nH]ccc2c1 [Example 74] | > 250 °C | 0.5 to 1 µM
9 | CSc1cccc(NC(=O)Nc2ccc3[nH]c(C(F)(F)F)nc3c2)c1 [Example 77] | 226 to 228 °C | 0.5 to 1 µM
10 | COc1cccc(NC(=O)Nc2ccc3[nH]c(C(F)(F)F)nc3c2)c1 [Example 79] | 233 to 237 °C | 0.5 to 1 µM
11 | CSc1ccc(NC(=O)Nc2cccc3[nH]ccc23)cc1 [Example 82] | 228 to 231 °C | 0.5 to 1 µM
12 | COc1ccccc1NC(=O)Nc1cccc2[nH]ccc12 [Example 84] | 208 to 209 °C | 0.5 to 1 µM
13 | CCOC(=O)c1cccc(NC(=O)Nc2cccc3[nH]ccc23)c1 [Example 85] | 194 to 196 °C | < 0.1 µM
14 | O=C(Nc1cccc(Cl)c1)Nc1cccc2[nH]ccc12 [Example 87] | 238 to 239 °C | 0.1 to 0.5 µM
15 | O=C(NCc1ccc(Br)cc1)Nc1cccc2[nH]ccc12 [Example 89] | 199 to 202 °C | < 0.1 µM
16 | O=C(Nc1cccc(F)c1)Nc1cccc2[nH]ccc12 [Example 90] | 225 to 226 °C | 0.5 to 1 µM
17 | O=C(Nc1ccc(C(F)(F)F)cc1)Nc1cccc2[nH]ccc12 [Example 92] | 242 to 243 °C | 0.1 to 0.5 µM
18 | O=C(Nc1cc(Cl)cc(Cl)c1)Nc1cccc2[nH]ccc12 [Example 93] | 262 to 263 °C | 0.1 to 0.5 µM
19 | O=C(Nc1ccccc1Cl)Nc1cccc2[nH]ccc12 [Example 95] | 244 to 246 °C | 0.1 to 0.5 µM
20 | O=C(Nc1cc([N+](=O)[O-])ccc1F)Nc1cccc2[nH]ccc12 [Example 97] | 261 to 263 °C | 0.5 to 1 µM
21 | O=C(Nc1ccc(F)c([N+](=O)[O-])c1)Nc1cccc2[nH]ccc12 [Example 98] | 248 to 251 °C | 0.1 to 0.5 µM
22 | O=C(NCc1cccc(F)c1)Nc1cccc2[nH]ccc12 [Example 99] | 190 to 192 °C | 0.5 to 1 µM
23 | O=C(NCc1ccccc1Cl)Nc1cccc2[nH]ccc12 [Example 101] | 237 to 238 °C | 0.1 to 0.5 µM
24 | COc1ccc(CNC(=O)Nc2cccc3[nH]ccc23)cc1 [Example 102] | 201 to 202 °C | 0.5 to 1 µM

Continued, values first:

Row | melting point | IC50 [1] | Compound
25 | 218 to 220 °C | 0.1 to 0.5 µM | O=C(Nc1ccc(Cl)c(C(F)(F)F)c1)Nc1ccc2[nH]cnc2c1 [Example 57]
26 | 238 to 240 °C | 0.1 to 0.5 µM | O=C(Nc1ccc(Br)cc1)Nc1cccc2[nH]ccc12 [Example 60]
27 | 230 to 232 °C | 0.5 to 1 µM | COc1ccc(NC(=O)Nc2cccc3[nH]ccc23)cc1 [Example 61]
28 | 246 to 247 °C | < 0.1 µM | Cc1ccc(NC(=O)Nc2cccc3[nH]ccc23)cc1Cl [Example 65]
29 | 222 to 224 °C | < 0.1 µM | CC(C)c1ccc(NC(=O)Nc2cccc3[nH]ccc23)cc1 [Example 66]
30 | > 250 °C | 0.5 to 1 µM | O=C(Nc1ccc(F)cc1)Nc1ccc2[nH]ncc2c1 [Example 67]
31 | 231 to 233 °C | 0.1 to 0.5 µM | O=C(Nc1ccc(Oc2ccccc2)cc1)Nc1ccc2[nH]ccc2c1 [Example 69]
32 | 250 °C | 0.5 to 1 µM | Cc1cccc(NC(=O)Nc2ccc3[nH]ccc3c2)c1 [Example 70]
33 | 243 to 245 °C | 0.5 to 1 µM | O=C(Nc1ccc(F)cc1)Nc1ccc2[nH]ccc2c1 [Example 72]
34 | 227 to 229 °C | 0.5 to 1 µM | COc1cccc(NC(=O)Nc2ccc3[nH]ccc3c2)c1 [Example 73]
35 | 239 to 241 °C | 0.5 to 1 µM | O=C(Nc1ccc(Oc2ccccc2)cc1)Nc1ccc2[nH]c(C(F)(F)F)nc2c1 [Example 75]
36 | 245 to 247 °C | 0.5 to 1 µM | Cc1cccc(NC(=O)Nc2ccc3[nH]c(C(F)(F)F)nc3c2)c1 [Example 76]
37 | 242 to 243 °C | 0.5 to 1 µM | O=C(Nc1ccc(F)cc1)Nc1ccc2[nH]c(C(F)(F)F)nc2c1 [Example 78]
38 | > 250 °C | 0.5 to 1 µM | O=C(Nc1ccc(Br)cc1)Nc1ccc2[nH]c(C(F)(F)F)nc2c1 [Example 80]
39 | 240 to 242 °C | 0.5 to 1 µM | O=C(Nc1ccc(Cl)c(Cl)c1)Nc1ccc2[nH]c(C(F)(F)F)nc2c1 [Example 81]
40 | 205 to 207 °C | 0.5 to 1 µM | CC(=O)c1cccc(NC(=O)Nc2cccc3[nH]ccc23)c1 [Example 83]
41 | 104 to 106 °C | 0.5 to 1 µM | O=C(Nc1ccccc1-c1ccccc1)Nc1cccc2[nH]ccc12 [Example 86]
42 | 242 to 243 °C | 0.1 to 0.5 µM | O=C(Nc1ccc2ccccc2c1)Nc1cccc2[nH]ccc12 [Example 88]
43 | 247 to 248 °C | 0.1 to 0.5 µM | O=C(Nc1ccc(Cl)cc1)Nc1cccc2[nH]ccc12 [Example 91]
44 | 244 to 246 °C | 0.5 to 1 µM | O=C(Nc1ccccc1F)Nc1cccc2[nH]ccc12 [Example 94]
45 | 233 to 235 °C | 0.1 to 0.5 µM | O=C(Nc1ccc(Cl)c([N+](=O)[O-])c1)Nc1cccc2[nH]ccc12 [Example 96]
46 | 223 °C | 0.1 to 0.5 µM | Cc1ccc(CNC(=O)Nc2cccc3[nH]ccc23)cc1 [Example 100]
